Where a name gives a salt, the structure may show the parent alone.
Columns and labels:
[1] = tested on: LCMV/vRNP cells (HEK293T)
[2] = tested on: rLCMV/GFP; assay: microbe, parasite or virus in culture; format: cell-based
[3] = in vitro; conditions: human, CC50 (μM) AlamarBlue assay
[4] = target: LCMV MG (Lymphocytic choriomeningitis virus, UniProt P09992+P14240); format: cell-based
LCMV MG, sequence (P09992 whole entry, looked up): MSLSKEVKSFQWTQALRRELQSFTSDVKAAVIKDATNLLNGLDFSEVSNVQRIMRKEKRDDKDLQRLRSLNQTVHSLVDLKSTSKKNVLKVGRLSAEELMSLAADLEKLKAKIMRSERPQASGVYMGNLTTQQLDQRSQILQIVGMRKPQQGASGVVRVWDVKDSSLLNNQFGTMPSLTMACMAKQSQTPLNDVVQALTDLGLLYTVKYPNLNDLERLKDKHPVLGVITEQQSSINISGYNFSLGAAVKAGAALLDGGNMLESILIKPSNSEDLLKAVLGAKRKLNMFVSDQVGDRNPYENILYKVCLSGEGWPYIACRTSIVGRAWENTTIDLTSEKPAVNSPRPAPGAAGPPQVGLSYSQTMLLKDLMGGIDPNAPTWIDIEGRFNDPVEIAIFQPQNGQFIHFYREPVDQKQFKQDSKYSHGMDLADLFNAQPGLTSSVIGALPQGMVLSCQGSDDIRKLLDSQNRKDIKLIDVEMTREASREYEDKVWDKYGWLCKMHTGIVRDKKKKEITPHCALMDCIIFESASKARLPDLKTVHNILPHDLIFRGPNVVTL
LCMV MG, sequence (P14240 whole entry, looked up): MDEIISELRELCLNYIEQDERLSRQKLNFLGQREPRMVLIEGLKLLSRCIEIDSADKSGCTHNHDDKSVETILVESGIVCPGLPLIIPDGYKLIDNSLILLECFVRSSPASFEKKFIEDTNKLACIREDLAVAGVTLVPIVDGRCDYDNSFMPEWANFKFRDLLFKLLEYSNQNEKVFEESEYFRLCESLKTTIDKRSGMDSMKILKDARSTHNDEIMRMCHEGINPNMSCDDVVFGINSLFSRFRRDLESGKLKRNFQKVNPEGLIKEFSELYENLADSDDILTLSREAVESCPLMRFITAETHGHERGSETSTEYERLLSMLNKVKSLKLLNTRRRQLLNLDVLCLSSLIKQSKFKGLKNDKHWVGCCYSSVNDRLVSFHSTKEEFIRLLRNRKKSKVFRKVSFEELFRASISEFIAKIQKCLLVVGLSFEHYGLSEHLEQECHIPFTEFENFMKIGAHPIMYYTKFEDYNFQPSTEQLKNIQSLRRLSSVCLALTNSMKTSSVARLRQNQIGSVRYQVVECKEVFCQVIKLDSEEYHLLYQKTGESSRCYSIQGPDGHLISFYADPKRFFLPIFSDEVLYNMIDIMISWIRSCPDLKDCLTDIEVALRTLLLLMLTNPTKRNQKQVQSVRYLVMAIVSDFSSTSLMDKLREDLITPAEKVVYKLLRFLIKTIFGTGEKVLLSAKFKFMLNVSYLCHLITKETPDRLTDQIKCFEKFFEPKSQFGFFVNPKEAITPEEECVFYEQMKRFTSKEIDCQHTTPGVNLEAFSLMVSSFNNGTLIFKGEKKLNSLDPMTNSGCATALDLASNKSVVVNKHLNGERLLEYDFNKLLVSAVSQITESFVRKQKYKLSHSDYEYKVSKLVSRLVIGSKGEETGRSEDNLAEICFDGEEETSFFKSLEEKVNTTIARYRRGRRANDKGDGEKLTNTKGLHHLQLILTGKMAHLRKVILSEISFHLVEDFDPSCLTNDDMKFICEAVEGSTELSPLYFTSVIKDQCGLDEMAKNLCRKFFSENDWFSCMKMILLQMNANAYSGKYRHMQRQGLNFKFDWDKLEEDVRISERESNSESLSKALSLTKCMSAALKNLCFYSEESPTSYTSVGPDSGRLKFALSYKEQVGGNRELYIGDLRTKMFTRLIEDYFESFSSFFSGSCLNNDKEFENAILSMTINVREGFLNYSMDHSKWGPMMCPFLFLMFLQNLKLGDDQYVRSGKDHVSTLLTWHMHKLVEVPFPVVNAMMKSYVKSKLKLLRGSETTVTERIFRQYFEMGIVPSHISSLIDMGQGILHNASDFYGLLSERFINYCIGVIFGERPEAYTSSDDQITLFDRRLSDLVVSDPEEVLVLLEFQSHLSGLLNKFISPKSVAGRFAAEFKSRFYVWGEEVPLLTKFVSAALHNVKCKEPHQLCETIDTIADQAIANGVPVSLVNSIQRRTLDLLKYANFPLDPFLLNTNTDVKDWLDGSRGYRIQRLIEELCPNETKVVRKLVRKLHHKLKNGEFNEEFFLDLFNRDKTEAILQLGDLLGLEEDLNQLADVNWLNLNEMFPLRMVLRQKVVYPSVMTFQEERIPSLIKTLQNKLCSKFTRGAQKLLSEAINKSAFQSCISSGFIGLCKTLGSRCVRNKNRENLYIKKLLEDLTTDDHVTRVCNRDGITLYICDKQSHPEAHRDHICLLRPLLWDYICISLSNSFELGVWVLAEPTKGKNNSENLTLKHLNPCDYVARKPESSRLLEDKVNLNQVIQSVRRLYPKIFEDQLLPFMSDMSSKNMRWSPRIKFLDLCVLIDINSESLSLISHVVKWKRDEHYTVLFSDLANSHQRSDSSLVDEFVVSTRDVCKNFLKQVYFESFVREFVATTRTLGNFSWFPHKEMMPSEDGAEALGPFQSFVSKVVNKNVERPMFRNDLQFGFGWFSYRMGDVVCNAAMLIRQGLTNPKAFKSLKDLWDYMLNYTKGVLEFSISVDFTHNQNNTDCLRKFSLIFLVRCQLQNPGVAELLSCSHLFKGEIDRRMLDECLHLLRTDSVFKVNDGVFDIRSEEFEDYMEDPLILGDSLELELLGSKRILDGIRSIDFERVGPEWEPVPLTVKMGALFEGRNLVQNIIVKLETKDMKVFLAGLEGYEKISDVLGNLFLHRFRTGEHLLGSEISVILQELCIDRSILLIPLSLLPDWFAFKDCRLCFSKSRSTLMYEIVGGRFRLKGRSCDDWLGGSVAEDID

| Molecule | CC50 [3] | effect on LCMV MG activity (GFP expression) [4] | further results |
| --- | --- | --- | --- |
| CO/C=C(/C(=O)OC)c1ccccc1Oc1cc(Oc2ccccc2C#N)ncn1 [Azoxystrobin] |  |  | CC50 [1]: 62.7 µM |
| PF429242 |  |  | effect on multiplication of live LCMV (rLCMV/GFP) [2]: inhibited |
| S=C(NCc1ccc2c(c1)OCO2)N1CCN(c2ncnc3c2oc2ccccc23)CC1 [Amuvatinib] | 28 µM |  |  |
| COc1ccc(C(O)C(C)Oc2ccc(C3OC(c4ccc(OC(C)C(O)c5ccc(OC)c(OC)c5)c(OC)c4)C(C)C3C)cc2OC)cc1OC (stereo not shown) [Manassantin A] | 24.3 µM | dose-dependent inhibitory effect |  |
| O=C1c2ccccc2-n2c1nc1ccccc1c2=O [Tryptanthrin] | 12.2 µM |  |  |
| CCCCCC[C@H]1C(=O)O[C@H](C)[C@H](NC(=O)c2cccc(NC=O)c2O)C(=O)O[C@@H](C)[C@@H]1OC(=O)CC(C)C [Antimycin A] |  | dose-dependent inhibitory effect |  |
| CC[C@@H](C(=O)O)[C@@H]1O[C@@H]([C@@H](C)[C@H](O)[C@H](C)C(=O)[C@H](CC)[C@H]2O[C@]3(C=C[C@@H](O)[C@]4(CC[C@@](C)([C@H]5CC[C@](O)(CC)[C@H](C)O5)O4)O3)[C@H](C)C[C@@H]2C)[C@@H](C)C[C@@H]1C [Narasin] | 4.44 µM | dose-dependent inhibitory effect |  |
| CC[C@@]1([C@H]2O[C@H]([C@H]3O[C@@](O)(CO)[C@H](C)C[C@@H]3C)C[C@H]2C)CC[C@H]([C@@]2(C)CC[C@]3(C[C@H](O)[C@@H](C)[C@@H]([C@H](C)[C@H](OC)[C@@H](C)C(=O)O)O3)O2)O1 [Monensin sodium salt] |  |  | CC50 [1]: 5.95 µM |
| O=c1[nH]c2ccccc2n1C1CCN(CCCC(c2ccc(F)cc2)c2ccc(F)cc2)CC1 [Pimozide] |  | dose-dependent inhibitory effect |  |
| C=C(C)[C@H]1Cc2c(ccc3c2O[C@@H]2COc4cc(OC)c(OC)cc4[C@@H]2C3=O)O1 [Rotenone] |  |  | EC50 ([2]; Mammarenavirus choriomeningitidis, A549, 48 h): 0.66 µM |
| CC(C)[C@@H]1NC(=O)[C@H](C)OC(=O)[C@@H](C(C)C)NC(=O)[C@@H](C(C)C)OC(=O)[C@H](C(C)C)NC(=O)[C@H](C)OC(=O)[C@@H](C(C)C)NC(=O)[C@@H](C(C)C)OC(=O)[C@H](C(C)C)NC(=O)[C@H](C)OC(=O)[C@@H](C(C)C)NC(=O)[C@@H](C(C)C)OC1=O [Valinomycin] | 1.93 µM |  |  |
